Laboratory results as given in patent US4179441A, “Fungidal and herbicidal 2-substituted-3-oxa-3aλ^4, 4-dithia-6-halo-1,5-diazapentalene” (Chevron Research Company, priority 1977, dated 1979).
Like-named read-outs stand apart in the source and are kept apart here.

Assays:
Alternaria solani = assay: Tomato Early Blight; type: in vivo; details: 288 h, read-out: Tomato Early blight % Control
Erysiphe polygoni = assay: Powdery Mildew (bean seedlings); type: in vivo; details: 240 h, 250 ppm spray on bean seedlings, about 10 days, relative to untreated check plants
Description: The powdery mildew test was made using bean seedlings (var. Bountiful) with well-developed primary leaves. The pathogen was Erysiphe polygoni. The bean seedlings were sprayed with a 250 ppm solution of the test compound in an acetone-water mixture containing a nonionic emulsifier. The treated plants were inoculated one day after spray application of the test compound with the pathogen. […] The rate of infection on the leaves was made after about 10 days. The percent disease control provided by a given test compound was based on the disease reduction relative to untreated check plants.

Phytophthora infestans = assay: whole plant or invertebrate; type: in vivo; details: in Solanum lycopersicum, 168 h, read-out: Tomato Late Blight % Control
Pythium ultimum = assay: Mycelia Inhibition; type: cell-based; details: mycelial inhibition, 25° C., 24 hours
Aspergillus niger = assay: Mycelia Inhibition; type: cell-based; details: mycelial inhibition, 25° C., 24 hours
Rhizoctonia solani = assay: Mycelia Inhibition; type: cell-based; details: mycelial inhibition, 25° C., 24 hours
Fusarium moniliforme = assay: Mycelia Inhibition; type: cell-based; details: mycelial inhibition, 25° C., 24 hours
Botrytis cinerea = Botrytis cinerea control (detached horsebean leaves); type: in vivo; details: 3 to 5 days
Procedure: Compounds of the invention were tested for Botrytis cinerea control using detached, well-developed primary leaves of a 4-6 week old horsebean plant. […] The leaves were allowed to dry while the filter paper was kept moist by adding water as required. The treated leaves were then inoculated with the spores of Botrytis cinerea fungus grown on potato. The plate was covered after inoculation and kept at 23.5° C. The filter-paper lining of the plate was kept saturated with water throughout the test. The rate of disease incidence was determined in 3 to 5 days, when the disease symptoms were fully evident on non-treated check leaves. […]

Septoria apii = details: in vivo
[1] = tested on: Mustard (Brassica arvensis); assay: Post-emergent herbicidal test; type: in vivo; details: 0-to-100 scale
[2] = tested on: Crabgrass (Digitaria sanguinalis); assay: Post-emergent herbicidal test; type: in vivo; details: 0-to-100 scale
[3] = tested on: Mustard (Brassica arvensis); assay: Pre-Emergent herbicidal test; type: in vivo; details: 33 micrograms/cm^2, 3 weeks, 0-to-100 scale, 100 = complete kill
Procedure: (§1) Pre-emergent herbicidal tests on representative compounds of the invention were made using the following method:
(§2) An acetone solution of the test compound was prepared by mixing 750 mg of the compound, 220 mg of a nonionic surfactant and 25 ml of acetone. This solution was added to approximately 125 ml of water containing 156 mg of surfactant.
(§3) Seeds of the test vegetation were planted in a pot of soil and the test solution was sprayed uniformly onto the soil surface at a dose of 33 micrograms/cm^2. The pot was watered and placed in a greenhouse. […] At the end of this period, the herbicidal effectiveness of the compound was rated based on the physiological observations. A 0-to-100 scale was used, 0 representing no phytotoxicity, 100 representing complete kill.

[4] = tested on: Watergrass (Echinochloa crusgalli); assay: Pre-Emergent herbicidal test; type: in vivo; details: 33 micrograms/cm^2, 3 weeks, 0-to-100 scale, 100 = complete kill
Procedure: as §1, §2, §3

Wild Oats (Avena fatua) [5] = assay: Pre-Emergent herbicidal test; type: in vivo; details: 33 micrograms/cm^2, 3 weeks, 0-to-100 scale, 100 = complete kill
Procedure: as §1, §2, §3

[6] = tested on: Lambsquarter (Chenopodium album); assay: Pre-Emergent herbicidal test; type: in vivo; details: 33 micrograms/cm^2, 3 weeks, 0-to-100 scale, 100 = complete kill
Procedure: as §1, §2, §3

[7] = tested on: Crabgrass (Digitaria sanguinalis); assay: Pre-Emergent herbicidal test; type: in vivo; details: 33 micrograms/cm^2, 3 weeks, 0-to-100 scale, 100 = complete kill
Procedure: as §1, §2, §3

[8] = tested on: Watergrass (Echinochloa crusgalli); assay: Post-emergent herbicidal test; type: in vivo; details: 0-to-100 scale
Wild Oats (Avena fatua) [9] = assay: Post-emergent herbicidal test; type: in vivo; details: 0-to-100 scale
[10] = tested on: Lambsquarter (Chenopodium album); assay: Post-emergent herbicidal test; type: in vivo; details: 0-to-100 scale
[11] = 250 ppm spray, inoculated one day later, based on untreated check plants

Compound | pest or weed control at 250 ppm (Erysiphe polygoni) [%] | pest or weed control at 250 ppm (Phytophthora infestans) [%] | Pythium ultimum, micrograms/cm^2 for 99% control of the fungus (Pythium ultimum) [micrograms/cm^2] | Aspergillus niger, micrograms/cm^2 for 99% control of the fungus (Aspergillus niger) [micrograms/cm^2] | Rhizoctonia solani, micrograms/cm^2 for 99% control of the fungus (Rhizoctonia solani) [micrograms/cm^2] | pest or weed control at 250 ppm (Alternaria solani; [11]) [%] | Fusarium moniliforme, micrograms/cm^2 for 99% control of the fungus (Fusarium moniliforme) [micrograms/cm^2] | also measured
ClC1=NSS2=C1N=C(c1ccccc1)O2 (stereo not shown) [Compound 6] | 100 | 93 |  |  |  |  |  | pest or weed control at 250 ppm (Alternaria solani): 75%
Oc1ccccc1C1=NC2=S(O1)SN=C2Cl (stereo not shown) [Compound 13] |  | 27 | > 1.7 | 0.98 | 0.5 | 51 | > 1.7 | 
ClC1=NSS2=C1N=C(c1ccc(Cl)c(Cl)c1)O2 (stereo not shown) [Compound 1] |  | 60 |  |  |  | 39 |  | 
N#CSCC1=NC2=S(O1)SN=C2Cl (stereo not shown) [Compound 20, 2-thiocyanatomethyl-3-oxa-3aλ^4,4-dithia-6-chloro-1,5-diazapentalene] |  |  |  | 0.6 | 0.33 |  | > 1.7 | Botrytis Cinerea, micrograms/cm^2 for 99% control of the fungus (Botrytis cinerea): 0.88 micrograms/cm^2
ClC1=NSS2=C1N=C(C1CC1)O2 (stereo not shown) [Compound 21, 2-cyclopropyl-3-oxa-3aλ^4,4-dithia-6-chloro-1,5-diazapentalene] |  | 97 |  |  |  | 23 |  | 
O=[N+]([O-])c1ccc(Cl)cc1C1=NC2=S(O1)SN=C2Cl (stereo not shown) [Compound 17] |  | 80 |  |  |  |  |  | 
ClC1=NSS2=C1N=C(CI)O2 (stereo not shown) [Compound 9, 2-iodomethyl-3-oxa-3aλ^4,4-dithia-6-chloro-1,5-diazapentalene] |  | 62 | 0.12 | 0.52 | 0.6 | 81 | 0.82 | Celery Late Blight % Control (Septoria apii): 71%; Botrytis Cinerea, micrograms/cm^2 for 99% control of the fungus (Botrytis cinerea): 0.37 micrograms/cm^2
ClC1=NSS2=C1N=C(c1ccc(Cl)cc1)O2 (stereo not shown) [Compound 3] | 76 | 98 |  |  |  |  |  | Botrytis Cinerea, micrograms/cm^2 for 99% control of the fungus (Botrytis cinerea): 1.1 micrograms/cm^2
FC(F)(F)c1cccc(C2=NC3=S(O2)SN=C3Cl)c1 (stereo not shown) [Compound 4] | 80 |  | > 1.7 | > 1.7 | 0.65 |  | > 1.7 | Celery Late Blight % Control (Septoria apii): 23%
ClC1=NSS2=C1N=C(c1c(Cl)cccc1Cl)O2 (stereo not shown) [Compound 15] |  |  |  |  |  |  |  | Botrytis Cinerea, micrograms/cm^2 for 99% control of the fungus (Botrytis cinerea): 1.6 micrograms/cm^2
ClC1=NSS2=C1N=C(CSc1ccc(Cl)cc1)O2 (stereo not shown) [Compound 10, 2-(4-chlorophenylthio-methyl)-3-oxa-3aλ^4,4-dithia-6-chloro-1,5-diazapentalene] |  | 81 | > 1.7 | 0.52 | 1.2 |  | > 1.7 | 
ClCC1=NC2=S(O1)SN=C2Cl (stereo not shown) [Compound 5, 2-chloromethyl-3-oxa-3aλ^4,4-dithia-6chloro-1,5-diazapentalene] |  | 81 | 0.12 | 1.1 | 0.38 | 73 | > 1.7 | 
ClC1=NSS2=C1N=C(COc1ccc(Cl)cc1Cl)O2 (stereo not shown) [Compound 29] | 37 |  |  |  |  | 69 |  | Herbicidal Effectiveness - Post, M [1]: 100; Herbicidal Effectiveness - Post, C [2]: 20; Herbicidal Effectiveness - Pre, M [3]: 100; Herbicidal Effectiveness - Pre, W [4]: 95; Herbicidal Effectiveness - Pre, O (Wild Oats (Avena fatua) [5]): 0; Herbicidal Effectiveness - Pre, L [6]: 100; Herbicidal Effectiveness - Pre, C [7]: 97; Herbicidal Effectiveness - Post, W [8]: 20; Herbicidal Effectiveness - Post, O (Wild Oats (Avena fatua) [9]): 20; Herbicidal Effectiveness - Post, L [10]: 97
ClC1=NSS2=C1N=C(c1ccccc1I)O2 (stereo not shown) [Compound 28] | 69 | 75 |  |  |  |  |  | 
ClC1=NSS2=C1N=C(c1cccs1)O2 (stereo not shown) [Compound 12] | 54 | 89 | > 1.7 | 1.2 | 0.5 | 68 | > 1.7 | Botrytis Cinerea, micrograms/cm^2 for 99% control of the fungus (Botrytis cinerea): 1.4 micrograms/cm^2
ClC1=NSS2=C1N=C(c1ccco1)O2 (stereo not shown) [Compound 8, 2-(2-furyl)-3-oxa-3aλ^4,4-dithia-6-chloro-1,5-diazapentalene] |  |  | 0.29 | 0.49 | 0.34 | 56 | 0.95 | Botrytis Cinerea, micrograms/cm^2 for 99% control of the fungus (Botrytis cinerea): 0.15 micrograms/cm^2
ClC1=NSS2=C1N=C(COc1ccc(Cl)cc1)O2 (stereo not shown) [Compound 25] | 29 |  |  |  |  |  |  | Herbicidal Effectiveness - Post, M [1]: 85; Herbicidal Effectiveness - Post, C [2]: 0; Herbicidal Effectiveness - Pre, M [3]: 95; Herbicidal Effectiveness - Pre, W [4]: 20; Herbicidal Effectiveness - Pre, O (Wild Oats (Avena fatua) [5]): 0; Herbicidal Effectiveness - Pre, L [6]: 90; Herbicidal Effectiveness - Pre, C [7]: 70; Herbicidal Effectiveness - Post, W [8]: 0; pest or weed control at 250 ppm (Alternaria solani): 88%; Herbicidal Effectiveness - Post, O (Wild Oats (Avena fatua) [9]): 0; Herbicidal Effectiveness - Post, L [10]: 85
ClC1=NSS2=C1N=C(C(Cl)=C(Cl)Cl)O2 (stereo not shown) [Compound 23, 2-trichlorovinyl-3-oxa-3aλ^4,4-dithia-6-chloro-1,5-diazapentalene] | 95 | 98 |  |  |  |  |  | 
ClC1=NSS2=C1N=C(c1cc(Cl)cc(Cl)c1)O2 (stereo not shown) [Compound 16] | 23 |  |  |  |  |  |  | 
Fc1ccccc1C1=NC2=S(O1)SN=C2Cl (stereo not shown) [Compound 2] | 35 | 93 |  |  |  |  |  | Botrytis Cinerea, micrograms/cm^2 for 99% control of the fungus (Botrytis cinerea): 1.6 micrograms/cm^2
ClC1=NSS2=C1N=C(C(Cl)(Cl)Cl)O2 (stereo not shown) [Compound 14] |  |  |  |  |  | 21 |  | 
N#CSc1cccc(C2=NC3=S(O2)SN=C3Cl)c1 (stereo not shown) [Compound 22] | 35 |  |  |  |  |  |  | 
ClC1=NSS2=C1N=C(CSCc1ccc(Cl)cc1)O2 (stereo not shown) [Compound 11] |  | 93 | > 1.7 | 0.46 | 0.5 |  | > 1.7 | 
O=[N+]([O-])c1ccc(C2=NC3=S(O2)SN=C3Cl)cc1 (stereo not shown) [Compound 7] |  | 90 |  |  |  | 23 |  | 
ClC1=NSS2=C1N=C(COc1cc(Cl)ccc1Cl)O2 (stereo not shown) [Compound 27] |  |  |  |  |  |  |  | Herbicidal Effectiveness - Post, M [1]: 80; Herbicidal Effectiveness - Post, C [2]: 90; Herbicidal Effectiveness - Pre, M [3]: 87; Herbicidal Effectiveness - Pre, W [4]: 55; Herbicidal Effectiveness - Pre, O (Wild Oats (Avena fatua) [5]): 0; Herbicidal Effectiveness - Pre, L [6]: 82; Herbicidal Effectiveness - Pre, C [7]: 55; Herbicidal Effectiveness - Post, W [8]: 0; Herbicidal Effectiveness - Post, O (Wild Oats (Avena fatua) [9]): 0; Herbicidal Effectiveness - Post, L [10]: 90
